EC50 and IC50 data for 30 compounds are collected here from patent US11534441B2, “MAP4K1 inhibitors” (Blueprint Medicines Corporation, priority 2020, dated 2022).

In experiment [1] the test system is expanded CD3+ T cells. In words: T cell enhancement of cytokines: IL2 measurement (HTRF) in expanded CD3+ T cells stimulated with anti-CD3/anti-CD28. The class given is cell-based, human. Particulars: IL-2 measurement. The essentials:
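Healthy-donor T cells (95-98% CD3+) expanded 10-14 days with IL2 and CD3/CD28 beads, then cryopreserved. 100K cells/well in X-VIVO 10 serum-free medium were stimulated with plate-bound anti-CD3 plus soluble anti-CD28 with compound at various concentrations for 24 h. Secreted IL2 measured by HTRF after 24 h antibody incubation.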
For orientation: TR-FRET usually uses a lanthanide donor and a delayed reading to cut background.

For experiment [2], the target named is MAP4K1 (HPK1) (Homo sapiens (Human), UniProt Q92918). In words: MAP4K1 (HPK1) biochemical enzymatic activity, electrophoretic mobility shift (EZReader 2), ATP at APPKM (26 μM). The gist of the method:
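Enzyme at 0.1-15 nM was incubated with 1.5 μM fluorescent peptide and ATP at the apparent Km (26 μM) in HEPES pH 7.5, MgCl2, DTT and Brij 35. The reaction ran at 25° C for 60-180 min with a 10-point, 4-fold compound series (1% DMSO) and was stopped with EDTA. Substrate and product peptides were resolved by microfluidic mobility shift, and their peak ratio gave activity.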

The mark [3] stands for this setting: Homo sapiens, T-cell, class designation.
Where [4] appears, read: Homo sapiens, T-cell, numeric value.

MAP4K1 (HPK1), sequence (Q92918 whole entry): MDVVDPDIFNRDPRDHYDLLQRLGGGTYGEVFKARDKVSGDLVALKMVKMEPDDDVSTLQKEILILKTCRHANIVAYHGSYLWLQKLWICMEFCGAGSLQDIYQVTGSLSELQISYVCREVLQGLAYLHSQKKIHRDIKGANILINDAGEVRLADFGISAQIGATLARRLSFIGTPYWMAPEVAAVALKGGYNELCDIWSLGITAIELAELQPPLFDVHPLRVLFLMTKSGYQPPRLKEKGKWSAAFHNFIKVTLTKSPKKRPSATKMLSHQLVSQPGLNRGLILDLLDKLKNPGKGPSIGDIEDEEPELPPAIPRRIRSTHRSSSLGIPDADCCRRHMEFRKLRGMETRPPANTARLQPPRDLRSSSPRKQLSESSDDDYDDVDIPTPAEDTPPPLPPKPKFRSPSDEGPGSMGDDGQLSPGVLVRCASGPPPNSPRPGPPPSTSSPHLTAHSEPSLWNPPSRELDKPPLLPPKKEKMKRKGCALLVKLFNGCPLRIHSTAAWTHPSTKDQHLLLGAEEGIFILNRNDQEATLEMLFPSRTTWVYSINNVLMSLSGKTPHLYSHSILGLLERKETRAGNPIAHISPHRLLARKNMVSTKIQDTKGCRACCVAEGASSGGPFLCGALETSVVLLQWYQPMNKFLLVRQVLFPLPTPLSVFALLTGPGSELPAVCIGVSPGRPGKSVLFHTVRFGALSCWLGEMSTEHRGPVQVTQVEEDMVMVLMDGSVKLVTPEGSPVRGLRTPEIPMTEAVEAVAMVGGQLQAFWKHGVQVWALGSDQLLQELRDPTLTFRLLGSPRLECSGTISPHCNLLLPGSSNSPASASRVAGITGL

On to `CC[C@@]1(C)OC(=O)c2ccc(Nc3cc4c(C(C)(C)N)cnc(OC5CC5)c4cn3)nc21` [Compound 114], for which the values for the EC50 in experiment [1] (class designation) and in experiment [1] (numeric value) were < 35 nM and 25.6 nM, respectively. Also, the figures for the IC50 in experiment [2] (class designation) and in experiment [2] (numeric value) were 0.31 to 1 nM and 0.88 nM, respectively.
Consider `CC(C)(N)c1cnc(OCC(F)(F)F)c2cnc(Nc3ccnc(C(C)(C)F)n3)cc12` [Compound 115], for which the EC50 in experiment [1] (setting [3]) is > 55 nM; in experiment [1] (setting [4]), 232 nM. Besides, the results for the IC50 in experiment [2] (class designation) and in experiment [2] (numeric value) were > 10 nM and 7.39 nM, respectively.
As for `CC(C)(N)c1cnc(OCC(F)F)c2cnc(Nc3ccc4c(n3)C(C)(C)OC4=O)cc12` [Compound 116], the EC50 in experiment [1] (setting [3]) was > 55 nM; in experiment [1] (setting [4]), 64.9 nM. Moreover, the IC50 in experiment [2] (class designation) is 1.1 to 10 nM; in experiment [2] (numeric value), 2.14 nM.
As to `C[C@@H]1c2nc(Nc3cc4c(C(C)(C)N)cnc(NC5CC5)c4cn3)ccc2C(=O)OC1(C)C` [Compound 123], the figures for the EC50 in experiment [1] (setting [3]) and in experiment [1] (setting [4]) were < 35 nM and 7.6 nM, respectively. Also, the IC50 is < 0.3 nM in experiment [2] (class designation) and 0.2 nM in experiment [2] (numeric value).
With `C[C@@H]1OC(=O)c2ccc(Nc3cc4c(C(C)(C)N)cnc(NC5CCC5)c4cn3)nc2[C@H]1C` [Compound 124], the EC50 in experiment [1] (setting [3]) was < 35 nM; in experiment [1] (setting [4]) it was 7.4 nM. The IC50 in experiment [2] (class designation) is < 0.3 nM; in experiment [2] (numeric value) it was 0.24 nM.
Regarding `C[C@H]1OC(=O)c2ccc(Nc3cc4c(C(C)(C)N)cnc(OC5CC5)c4cn3)nc2C1(C)C` [Compound 127], the values for the EC50 in experiment [1] (class designation) and in experiment [1] (numeric value) were < 35 nM and 21 nM, respectively. Also, the IC50 is < 0.3 nM in experiment [2] (class designation) and 0.17 nM in experiment [2] (numeric value).
In the same order, the values of `CC[C@](C)(N)c1cnc(OC2CC2)c2cnc(Nc3ccc4c(n3)[C@@H](C)[C@H](C)OC4=O)cc12` [Compound 131] are 35.1 to 45 nM, 35.2 nM, 0.31 to 1 nM and 0.46 nM.
For `CC[C@](C)(N)c1cnc(OC2CC2)c2cnc(Nc3ccc4c(n3)CC(C)(C)OC4=O)cc12` [Compound 133], the EC50 in experiment [1] (class designation) is 45.1 to 55 nM; in experiment [1] (numeric value) it was 53.8 nM. Moreover, the figures for the IC50 in experiment [2] (class designation) and in experiment [2] (numeric value) were 1.1 to 10 nM and 5.86 nM, respectively.
`CC1(C)Cc2nc(Nc3cc4c(C(C)(C)N)cnc(OC5(C)CC5)c4cn3)ccc2C(=O)O1` [Compound 135]: the results for the concentration for a half-maximal effect (EC50) in experiment [1] (setting [3]) and in experiment [1] (setting [4]) were < 35 nM and 31.6 nM, respectively. The IC50 in experiment [2] (class designation) was 0.31 to 1 nM; in experiment [2] (numeric value) it was 0.54 nM.
Consider `CC[C@@](C)(N)c1cnc(OC2CC2)c2cnc(Nc3ccc4c(n3)C(C)(C)COC4=O)cc12` [Compound 136], for which the EC50 in experiment [1] (class designation) was 35.1 to 45 nM; in experiment [1] (numeric value), 40.5 nM. In addition, the IC50 in experiment [2] (class designation) was 0.31 to 1 nM; in experiment [2] (numeric value), 0.39 nM.
With `CC[C@H]1c2nc(Nc3cc4c(C(C)(C)N)cnc(OC5CC5)c4cn3)ccc2C(=O)O[C@H]1C` [Compound 138], the EC50 was < 35 nM in experiment [1] (class designation) and 13.8 nM in experiment [1] (numeric value). For the same compound, the IC50 is < 0.3 nM in experiment [2] (class designation) and 0.27 nM in experiment [2] (numeric value).
As to `C[C@@H]1OC(=O)c2ccc(Nc3cc4c(C(C)(C)N)cnc(OC5COC5)c4cn3)nc2[C@H]1C` [Compound 141], the EC50 in experiment [1] (setting [3]) was < 35 nM; in experiment [1] (setting [4]), 21.6 nM. The IC50 was 0.31 to 1 nM in experiment [2] (class designation) and 0.42 nM in experiment [2] (numeric value).
As to `CC[C@@](C)(N)c1cnc(OC2CC2)c2cnc(Nc3ccc4c(n3)[C@@H](C)C(C)(C)OC4=O)cc12` [Compound 156], the EC50 was < 35 nM in experiment [1] (class designation) and 13.6 nM in experiment [1] (numeric value). Besides, the values for the 50% inhibitory concentration (IC50) in experiment [2] (class designation) and in experiment [2] (numeric value) were < 0.3 nM and 0.1 nM, respectively.
For `CC[C@](C)(N)c1cnc(OC2CC2)c2cnc(Nc3ccc4c(n3)C(C)(C)[C@@H](C)OC4=O)cc12` [Compound 157], the EC50 was < 35 nM in experiment [1] (class designation) and 21.3 nM in experiment [1] (numeric value). For the same compound, the IC50 was < 0.3 nM in experiment [2] (class designation) and 0.14 nM in experiment [2] (numeric value).
For `C[C@@H]1OC(=O)c2ccc(Nc3cc4c(C(C)(C)N)cnc(O[C@H]5CCOC5)c4cn3)nc2[C@H]1C` [Compound 159], the EC50 is < 35 nM in experiment [1] (setting [3]) and 27.4 nM in experiment [1] (setting [4]). The IC50 was 0.31 to 1 nM in experiment [2] (class designation) and 0.39 nM in experiment [2] (numeric value).
On to `C[C@@H]1OC(=O)c2ccc(Nc3cc4c(C(C)(C)N)cnc(OCC(C)(F)F)c4cn3)nc2[C@H]1C` [Compound 166], for which the EC50 in experiment [1] (setting [3]) is 35.1 to 45 nM; in experiment [1] (setting [4]), 40 nM. In addition, the IC50 in experiment [2] (class designation) is < 0.3 nM; in experiment [2] (numeric value), 0.25 nM.
For `CC1(C)Cc2nc(Nc3cc4c([C@](C)(N)C5CCC5)cnc(OC5CC5)c4cn3)ccc2C(=O)O1` [Compound 168], the EC50 was 35.1 to 45 nM in experiment [1] (class designation) and 41.3 nM in experiment [1] (numeric value). Besides, the IC50 was < 0.3 nM in experiment [2] (class designation) and 0.15 nM in experiment [2] (numeric value).
For `C[C@@H]1OC(=O)c2ccc(Nc3cc4c([C@](C)(N)C5CCC5)cnc(OC5CC5)c4cn3)nc2[C@H]1C` [Compound 170], the EC50 in experiment [1] (class designation) was < 35 nM; in experiment [1] (numeric value) it was 6.8 nM. Also, the IC50 in experiment [2] (class designation) is < 0.3 nM; in experiment [2] (numeric value) it was 0.07 nM.
The matching figures for `CC[C@]1(C)OC(=O)c2ccc(Nc3cc4c(C(C)(C)N)cnc(OCC(F)(F)F)c4cn3)nc21` [Compound 172]: > 55 nM, 74.8 nM, 1.1 to 10 nM and 4.47 nM.
In the case of `CC[C@@]1(C)OC(=O)c2ccc(Nc3cc4c(C(C)(C)N)cnc(OCC(F)(F)F)c4cn3)nc21` [Compound 174], the EC50 in experiment [1] (class designation) was < 35 nM; in experiment [1] (numeric value), 28.2 nM. Besides, the IC50 in experiment [2] (class designation) was 1.1 to 10 nM; in experiment [2] (numeric value) it was 2.9 nM.
Consider `CC(C)(N)c1cnc(OCC(F)(F)F)c2cnc(Nc3ccnc([C@@H]4CCC[C@@H](O)C4)n3)cc12` [Compound 176], for which the EC50 was < 35 nM in experiment [1] (class designation) and 20.9 nM in experiment [1] (numeric value). Further, the IC50 was 0.31 to 1 nM in experiment [2] (class designation) and 0.8 nM in experiment [2] (numeric value).
As for `C[C@@H]1OC(=O)c2ccc(Nc3cc4c(C(C)(C)N)cnc(OC5CC(F)(F)C5)c4cn3)nc2[C@H]1C` [Compound 178], the EC50 in experiment [1] (setting [3]) was > 55 nM; in experiment [1] (setting [4]) it was 58.7 nM. Moreover, the IC50 is < 0.3 nM in experiment [2] (class designation) and 0.29 nM in experiment [2] (numeric value).
Consider `CC1(C)Cc2nc(Nc3cc4c(C(C)(C)NC5COC5)cnc(OC5CC5)c4cn3)ccc2C(=O)O1` [Compound 183], for which the EC50 in experiment [1] (setting [3]) was < 35 nM; in experiment [1] (setting [4]), 3.1 nM. Also, the IC50 is > 10 nM in experiment [2] (class designation) and 26.4 nM in experiment [2] (numeric value).
For `COC[C@@](C)(N)c1cnc(OC)c2cnc(Nc3ccc4c(n3)[C@@H](C)[C@H](C)OC4=O)cc12` [Compound 188], the EC50 was < 35 nM in experiment [1] (class designation) and 6.8 nM in experiment [1] (numeric value). In addition, the figures for the IC50 in experiment [2] (class designation) and in experiment [2] (numeric value) were < 0.3 nM and 0.09 nM, respectively.
For `COC[C@@](C)(N)c1cnc(OC2CC2)c2cnc(Nc3ccc4c(n3)[C@@H](C)C(C)(C)OC4=O)cc12` [Compound 189], the EC50 in experiment [1] (class designation) was 45.1 to 55 nM; in experiment [1] (numeric value), 45.8 nM. Also, the results for the IC50 in experiment [2] (class designation) and in experiment [2] (numeric value) were < 0.3 nM and 0.16 nM, respectively.
`CC[C@](C)(N)c1cnc(OC2CC2)c2cnc(Nc3ccc4c(n3)C3(CC3)C(C)(C)OC4=O)cc12` [Compound 196]: the EC50 in experiment [1] (class designation) was < 35 nM; in experiment [1] (numeric value), 19 nM. For the same compound, the IC50 in experiment [2] (class designation) was < 0.3 nM; in experiment [2] (numeric value) it was 0.1 nM.
Consider `CC[C@@H](N)c1cnc(OC)c2cnc(Nc3ccc4c(n3)[C@@H](C)C(C)(C)OC4=O)cc12` [Compound 204], for which the values for the EC50 in experiment [1] (class designation) and in experiment [1] (numeric value) were < 35 nM and 29.8 nM, respectively. Also, the IC50 in experiment [2] (class designation) is < 0.3 nM; in experiment [2] (numeric value) it was 0.22 nM.
For `COC[C@@](C)(N)c1cnc(C)c2cnc(Nc3ccc4c(n3)[C@@H](C)[C@H](C)OC4=O)cc12` [Compound 205], the EC50 in experiment [1] (setting [3]) is > 55 nM; in experiment [1] (setting [4]), 113 nM. In addition, the IC50 is 0.31 to 1 nM in experiment [2] (class designation) and 0.35 nM in experiment [2] (numeric value).
With `COC[C@@H](N)c1cnc(OC)c2cnc(Nc3ccc4c(n3)[C@@H](C)C(C)(C)OC4=O)cc12` [Compound 208], the EC50 was > 55 nM in experiment [1] (class designation) and 96 nM in experiment [1] (numeric value). Also, the IC50 was 0.31 to 1 nM in experiment [2] (class designation) and 0.7 nM in experiment [2] (numeric value).
On to `CC[C@@H](N)c1cnc(C)c2cnc(Nc3ccc4c(n3)[C@@H](C)C(C)(C)OC4=O)cc12` [Compound 210], for which the EC50 in experiment [1] (class designation) was > 55 nM; in experiment [1] (numeric value) it was 177 nM. Further, the IC50 in experiment [2] (class designation) was < 0.3 nM; in experiment [2] (numeric value) it was 0.23 nM.

A word on the EC50: it is the concentration needed to bring the measured effect to its halfway point. As usually defined, the IC50 is the concentration at which inhibition is half-maximal.
